# According to BindingDB's records for doi:10.1021/jm00045a013 (Sandoz Forschungsinstitut Ges.M.B.H., 1994):
# Key:
# [1] = target: T1, Dimer of Gag-Pol polyprotein [489-587] (Human immunodeficiency virus 1, UniProt P12497); test: Protease Inhibition Assay
# T1 construct: 489-587
# Procedure: (§1) Enzymatic activity was measured by following cleavage of the substrate H-Lys-Ala-Arg-Val-Leu-pNph-Glu-Ala-Nle-NH2. Products of the cleavage reaction were quantified by HPLC detection
# [2] = target: T2, Dimer of Gag-Pol polyprotein [514-612] (Human immunodeficiency virus 2, UniProt P04584); test: Protease Inhibition Assay
# T2 construct: 514-612
# T2 sequence (P04584 whole entry): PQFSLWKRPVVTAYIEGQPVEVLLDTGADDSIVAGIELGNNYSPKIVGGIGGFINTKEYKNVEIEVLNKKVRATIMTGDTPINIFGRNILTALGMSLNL
# Procedure: as §1
smiles,measurement,setting,value
CC(C)[C@H](NC(=O)OCc1ccccc1)C(=O)N[C@@H](Cc1ccccc1)[C@@H](O)[C@@H](NCc1ccccc1)C(=O)N[C@@H](C(=O)NCc1ccccc1)C(C)(C)C [5PhBuCOOH deriv.],Ki,[1],> 3000 nM
CC(C)[C@H](NC(=O)OCc1ccccc1)C(=O)N[C@@H](Cc1ccccc1)[C@@H](O)[C@@H](NCc1ccccc1)C(=O)N[C@H](C(=O)NCc1ccccc1)C(C)C [5PhBuCOOH deriv.],Ki,"[2]; pH 4.7, 37 °C",180 nM
CC(C)[C@H](NC(=O)[C@H](NCc1ccccc1)[C@H](O)[C@H](Cc1ccccc1)NC(=O)[C@@H](NC(=O)OCc1ccccc1)C(C)(C)C)C(=O)NCc1ccccc1 [5PhBuCOOH deriv.],Ki,"[2]; pH 4.7, 37 °C",54 nM
CC(C)[C@H](NC(=O)[C@H](NCc1ccccc1)[C@H](O)[C@H](Cc1ccccc1)NC(=O)[C@H](CCC(=O)O)NC(=O)OCc1ccccc1)C(=O)NCc1ccccc1 [5PhBuCOOH deriv.],Ki,"[1]; pH 6.25, 37 °C",45 nM
CCC(C)[C@H](NC(=O)OCc1ccccc1)C(=O)N[C@@H](Cc1ccccc1)[C@@H](O)[C@@H](NCc1ccccc1)C(=O)N[C@H](C(=O)NCc1ccccc1)C(C)C (stereo partly drawn) [5PhBuCOOH deriv.],Ki,"[1]; pH 6.25, 37 °C",8.3 nM
COc1ccc(CN[C@@H](C(=O)N[C@H](C(=O)NCc2nc3ccccc3[nH]2)C(C)C)[C@H](O)[C@H](Cc2ccccc2)NC(=O)[C@@H](NC(=O)CCc2ccc(O)cc2)C(C)(C)C)cc1 [5PhBuCOOH deriv.],Ki,[2],63 nM
COc1ccc(CN[C@@H](C(=O)N[C@H](C(=O)NCc2nc3ccccc3[nH]2)C(C)C)[C@H](O)[C@H](Cc2ccccc2)NC(=O)[C@@H](NC(=O)OCc2ccccc2)C(C)(C)C)cc1 [5PhBuCOOH deriv.],Ki,[2],52 nM
COc1ccc(CN[C@@H](C(=O)N[C@H](C(=O)NCc2nc3ccccc3[nH]2)C(C)C)[C@H](O)[C@H](Cc2ccccc2)NC(=O)[C@@H](NC(=O)[C@@](C)(O)c2ccccc2)C(C)(C)C)cc1 [5PhBuCOOH deriv.],Ki,[1],6 nM
same,Ki,[2],110 nM
"CC(C)[C@H](NC(=O)OCc1ccccc1)C(=O)N[C@@H](Cc1ccccc1)[C@@H](O)[C@@H](NCc1ccccc1)C(=O)N[C@H](C(=O)NCc1ccccc1)C(C)(C)C [benzyl N-[(1S)-1-{[(2S,3R,4R)-4-(benzylamino)-4-{[(1S)-1-(benzylcarbamoyl)-2,2-dimethylpropyl]carbamoyl}-3-hydroxy-1-phenylbutan-2-yl]carbamoyl}-2-methylpropyl]carbamate]",Ki,"[1]; pH 6.25, 37 °C",20 nM
"CCC(C)[C@H](NC(=O)[C@H](NCc1ccccc1)[C@H](O)[C@H](Cc1ccccc1)NC(=O)[C@@H](NC(=O)OCc1ccccc1)C(C)C)C(=O)NCc1ccccc1 (stereo partly drawn) [benzyl N-[(1S)-1-{[(2S,3R,4R)-4-(benzylamino)-4-{[(1S,2R)-1-(benzylcarbamoyl)-2-methylbutyl]carbamoyl}-3-hydroxy-1-phenylbutan-2-yl]carbamoyl}-2-methylpropyl]carbamate]",Ki,"[1]; pH 6.25, 37 °C",> 3000 nM
"COc1ccc(CN[C@@H](C(=O)N[C@H](C(=O)NCc2ccccc2)C(C)C)[C@H](O)[C@H](Cc2ccccc2)NC(=O)[C@@H](NC(=O)OCc2ccccc2)C(C)C)cc1 [benzyl N-[(1S)-1-{[(2S,3R,4R)-4-{[(1S)-1-(benzylcarbamoyl)-2-methylpropyl]carbamoyl}-3-hydroxy-4-{[(4-methoxyphenyl)methyl]amino}-1-phenylbutan-2-yl]carbamoyl}-2-methylpropyl]carbamate]",Ki,"[2]; pH 4.7, 37 °C",39 nM
"CC(C)[C@H](NC(=O)[C@H](NCc1ccc(Cl)cc1)[C@H](O)[C@H](Cc1ccccc1)NC(=O)[C@@H](NC(=O)OCc1ccccc1)C(C)(C)C)C(=O)NCc1nc2ccccc2[nH]1 [benzyl N-[(1S)-1-{[(2S,3R,4R)-4-{[(1S)-1-[(1H-1,3-benzodiazol-2-ylmethyl)carbamoyl]-2-methylpropyl]carbamoyl}-4-{[(4-chlorophenyl)methyl]amino}-3-hydroxy-1-phenylbutan-2-yl]carbamoyl}-2,2-dimethylpropyl]carbamate]",Ki,[2],17 nM
